In publication PMC3830934 (Science (New York, N.Y.), 2002):

Biological target: T1, human DHFR (Homo sapiens, UniProt P00374)
T1 sequence (P00374 1-187): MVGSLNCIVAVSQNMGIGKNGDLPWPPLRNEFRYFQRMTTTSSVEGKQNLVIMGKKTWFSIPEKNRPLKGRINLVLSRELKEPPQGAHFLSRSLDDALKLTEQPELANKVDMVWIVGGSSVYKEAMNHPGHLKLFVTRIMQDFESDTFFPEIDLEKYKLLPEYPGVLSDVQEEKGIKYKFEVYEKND
Assay: enzyme kinetic assay
Assay type: biochemical

Ki: 12 nM
Compound: CC1(C)N=C(N)N=C(N)N1OCCCOc1cc(Cl)c(Cl)cc1Cl [WR99210]
